“Also recorded” adds a separate entry of the source.
Legend:
[1] = Metal reduction assay, Cu^2+ (BC indicator); type: biochemical; settings: Cu^2+ 10 μM; PBS pH 7.4; 1 hr, 37° C.
Method: (§1) Polypeptides (10 μM) or Vitamin C (100 μM), metal ions (10 μM, Fe(NO3)3 or Cu(NO3)2), and reduced metal ion indicators, bathophenanthrolinedisulfonic acid (BP, for Fe^2+, Sigma, 200 μM) or bathocuproinedisulfonic acid (BC, for Cu^+, Sigma, […]), were coincubated in phosphate buffered saline (PBS), pH 7.4, for 1 hr at 37° C. The metal ion solutions were prepared by direct dilution in the buffer from their aqueous stocks purchased from National Institute of Standards and Technology (NIST). Absorbances were then measured at 536 nm (Fe^2+-BP complex) and 483 nm (Cu^+-BC complex), respectively, using a 96-well plate reader (SPECTRAmax 250, Molecular Devices, Calif.). In control samples, both metal ion and indicator were present to determine the background buffer signal. As a further control, both metal ion and peptide were present in the absence of indicator to estimate the contribution of light scattering due to turbidity to the absorbance reading at these wavelengths. The net absorbances (ΔA) at 536 nm or 483 nm were obtained by deducting the absorbances from these controls from the absorbances generated by the peptide and metal in the presence of the respective indicator.

[2] = Metal reduction assay, Fe^3+ (BP indicator); type: biochemical; settings: Fe^3+ 10 μM; PBS pH 7.4; 1 hr, 37° C.
Method: as §1, with “The metal reduction assay was performed using a 96-well microtiter plate (Costar) based upon a modification of established protocols (Landers, J. W., et al., Amer. Clin. Path. 29:590 (1958); Landers. J. W. et al., Clinica Chimica Acta 3:329 (1958)). Polypeptides” for “Polypeptides”
The concentrations of reduced metal ions (Fe^2+ or Cu^+) were quantified based on the formula: Fe^2+ or Cu^+ (˜M)=A*10^6/(L*M), where L is the measured equivalent vertical pathlength for a well of 300 μL volume as described in the instrument's specifications manual (0.856 cm for Fe^2+; 1.049 cm for Cu^+); M is the known molecular absorbance (M^−1 cm^−1) which is 7124 (for Fe^2+-BP complex) or 2762 (for Cu^+-BC complex).

[3] = tested on: Aβ deposits in age-matched control / healthy brain tissue; assay: Chelator-promoted solubilization of Aβ from non-AD control brain tissue, Western blot; type: biochemical, human; settings: chelator 2 mM
Source text: Using the same technique, zinc-mediated assembly of Aβ in normal brains was shown. FIGS. 20A and 20B show sedimentable Aβ deposits in healthy brain tissue. The effects of chelators in enhancing Aβ extraction from brain homogenates is also observed in normal tissue. FIG. 20A illustrates a western blot with anti-Aβ antibody of material extracted from an individual with no history of neurological disorder. T=TPEN, E=EGTA, B=bathocuproine.
(§2) Suitable quantities of gray matter from each subject were minced to serve as pools of homogenous tissue. […] To obtain the soluble fraction, the homogenates were centrifuged at 100,000×g for 30 min (Beckman J180, Beckman instruments, Fullerton, Calif.) and the supernatant collected in 1 ml aliquots and stored on ice or immediately frozen at −70° C. In each experiment, all protein was precipitated from 1 ml of supernatant from each treatment group using 1:5 ice cold 10% trichloracetic acid and pelleted in a bench top microfuge (Heraeus, Osteroder, Germany) at 10,000×g. The remaining pellet was frozen at −70° C.
Precipitated protein was subjected to SDS polyacrylamide gel electrophoresis (SDS-PAGE) on Novex pre-cast 10–20% Tris-Tricine gels followed by Western transfer onto 0.2 μm nitrocellulose membrane (Biorad, Hercules, Calif.). Aβ was detected using the WO2, G210 or G211 monoclonal antibodies (Ida, N. et al., J. Biol. Chem. 271:22908 (1996)) in combination with HRP-conjugated rabbit anti-mouse IgG (Dako, Denmark), and visualized using chemiluminescence (ECL, Amersham Life Science, Little Chalfont, Buckinghamshire, UK). Each gel included two or more lanes containing known quantities of synthetic Aβ which served as internal reference standards. […] For quantitation of Aβ in brain extracts, the internal reference standards of synthetic Aβ were utilized to produce standard curves from which values were interpolated.

[4] = tested on: Aβ deposits in AD brain tissue; assay: Chelator-promoted solubilization (extraction) of Aβ from AD brain homogenates, Western blot densitometry; type: biochemical, human; settings: for Effect of Chelators (% change from control) upon extraction of Aβ: mean of 6 AD brain samples; for chelator concentration of peak Aβ solubilization (lower peak) / chelator concentration of peak Aβ solubilization (upper peak): titration curves
Method: 0.5 g of prefrontal cortex was dissected and homogenized in PBS±chelator as indicated. The homogenate was then centrifuged (100,000 g) and the supernatant removed, and a sample taken for western blot assay using anti-Aβ specific antibodies after Tricine PAGE. Densitometry was performed against synthetic peptide standards.
as §2
Precipitated protein was subjected to SDS polyacrylamide gel electrophoresis (SDS-PAGE) on Novex pre-cast 10–20% Tris-Tricine gels followed by Western transfer onto 0.2 μm nitrocellulose membrane (Biorad, Hercules, Calif.). […] Each gel included two or more lanes containing known quantities of synthetic Aβ which served as internal reference standards. Blot images were captured by a Relisys scanner with transparency adapter (Teco Information Systems, Taiwan, ROC) and densitometry conducted using the NIH Image 1.6 program (National Institutes for Health, USA., Modified for PC by Scion Corporation, Frederick, Md.), calibrated using a step diffusion chart. For quantitation of Aβ in brain extracts, the internal reference standards of synthetic Aβ were utilized to produce standard curves from which values were interpolated.

Aβ1-42 = Aβ1-42 (Homo sapiens, UniProt P05067); assay: Effect of OH. scavengers on OH. generation by Aβ1-42 (TBARS); type: biochemical; settings: scavenger 5 mM; Fe^3+ or Cu^2+
Method: (§3) FIGS. 16A and 16B are graphical representations showing production of the hydroxyl radical (OH.) from the incubation of Aβ in the presence of substoichiometric amounts of Fe^3+ or Cu^2+. […] All data points are means±SD, n=3.
(§4) The Thiobarbituric Acid-Reactive Substance (TBARS) assay for incubation mixtures with Fe^3+ or Cu^2+ was performed in a 96-well microtiter format modified from established protocols (Gutteridge et al. Biochim. Biophys. Acta 759: 38–41 (1983)). Aβ peptide species (10 μM) or Vitamin C (100 μM), were incubated with Fe^3+ or Cu^2+ (1 μM) and deoxyribose (7.5 mM, Sigma) in PBS, pH 7.4. Following incubation (37° C., 1 hour), glacial (17 M) acetic acid and 2-thiobarburic acid (1%, w/v in 0.05 M NaOH, Sigma) were added and heated (100° C., 10 min). The final mixtures were placed on ice for 1–3 minutes before absorbances at 532 nm were measured. The net absorbance change for each sample were obtained by deducting the absorbance from a control sample consisting of identical chemical components except for the Vitamin C or Aβ peptides.

[5] = Effect of OH. scavengers on OH. generation by Vitamin C (TBARS); type: biochemical; settings: scavenger 5 mM
Method: as §3, §4

[6] = Cu^+ generation / metal reduction (Example 2); type: biochemical; settings: 10 μM in PBS; Cu^2+ 10 μM; 30 minutes, 37° C.
Method: This method is modified from a protocol assaying serum copper and iron (Landers, J. W., et al., Amer. J. Clin. Path. 29:590 (1958)). It is based on the fact that there are optimal visible absorption wavelengths of 483 nm and 535 nm for Cu^+ complexed with bathocuproinedisulfonic (BC) anion and Fe^2+ coordinated by bathophenanthrolinedisulfonic (BP) anion, respectively.
Aβ (10 μM in PBS, pH 7.4 or 6.8, as shown) was incubated for 30 minutes (37° C.) in the presence of Cu^2+ 10 μM±Zn^2+ 10 μM). Cu^+ levels (n=3, ±SD) were assayed against a standard curve.

[7] = chelator 2 mM, mean of AD subjects 1-6

Chain of Aβ1-42 (P05067 672-713 limits assumed): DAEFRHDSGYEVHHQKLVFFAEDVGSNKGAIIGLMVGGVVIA

Molecule: Aβ1-28: Aβ fragment 1-28, purchased
- available Cu^2+ reduced [1]: reduced no Cu^2+
- available Fe^3+ reduced [2]: did not significantly facilitate the reduction of Fe^3+

Molecule: O=C1O[C@H]([C@@H](O)CO)C(O)=C1O [Vitamin C, ascorbic acid]
- available Cu^2+ reduced [1]: reduced Cu^2+ efficiently
- available Fe^3+ reduced [2]: 15%

Molecule: c1ccc(CN(CCN(Cc2ccccn2)Cc2ccccn2)Cc2ccccn2)nc1 [TPEN, N,N,N′,N′-tetrakis [2-pyridyl-methyl]ethylenediamine]
- Extractable Aβ (% of total), mean X ([3]; mean of AC subjects 1-5): (16.7) %
- Extractable Aβ, mean X ([3]; mean of AC subjects 1-5): 0.40 µg/g
- X C/PBS ([3]; mean with chelator over mean with PBS, AC): 1.6
- mean increase in solubilized Aβ over PBS alone ([4]; 6 AD brains): around 2 fold
- Effect of Chelators (% change from control) upon extraction of Aβ ([4]; chelator 0.1 mM): 182%
- Effect of Chelators (% change from control) upon extraction of Aβ ([4]; chelator 2.0 mM): 241%
- Extractable Aβ (% of total), mean X [4, 7]: (4.6) %
- Extractable Aβ, mean X [4, 7]: 2.73 µg/g
- X C/PBS ([4]; chelator 2 mM, mean with chelator over mean with PBS, AD): 2.60
- chelator concentration of peak Aβ solubilization (lower peak) [4]: ~0.004 mM
- chelator concentration of peak Aβ solubilization (upper peak) [4]: ~0.1 mM

Molecule: Aβ1-42: synthetic human Aβ1-42 peptide
- available Fe^3+ reduced [2]: 50%

Molecule: C[S+](C)[O-] [DMSO, dimethyl sulfoxide]
- effect on generation of OH. by Aβ1-42 (Aβ1-42): neither were able to quench
- effect on generation of OH. by Vitamin C ([5]; in the presence of Cu^2+): suppressed
- effect on generation of OH. by Vitamin C ([5]; in the presence of Fe^3+): suppressed

Molecule: insulin: histidine-containing peptide that can bind copper and zinc
- available Cu^2+ reduced [1]: 10%
- available Fe^3+ reduced [2]: did not significantly facilitate the reduction of Fe^3+
- Cu^2+ reduction / redox reactivity [6]: no Cu^2+ reduction

Molecule: O=C(O)CN(CCOCCOCCN(CC(=O)O)CC(=O)O)CC(=O)O [EGTA]
- Effect of Chelators (% change from control) upon extraction of Aβ ([4]; chelator 0.1 mM): 207%
- effect on Aβ signal ([4]; chelator 2 mM): virtually abolished the signal for Aβ; also recorded: always produced a diminution in Aβ signal
- Effect of Chelators (% change from control) upon extraction of Aβ ([4]; chelator 2.0 mM): 46%
- chelator concentration of peak Aβ solubilization (lower peak) [4]: ~0.004 mM
- chelator concentration of peak Aβ solubilization (upper peak) [4]: ~0.1 mM

Molecule: OC[C@@H](O)[C@@H](O)[C@H](O)[C@H](O)CO [Mannitol]
- effect on generation of OH. by Aβ1-42 (Aβ1-42): neither were able to quench
- effect on generation of OH. by Vitamin C ([5]; in the presence of Fe^3+): suppressed

— patent US7045531B1, “Composition comprising a metal chelator and a method of treating amyloidosis by administering the metal chelator” (The General Hospital Corporation, priority 1997, dated 2006)
